± gives the expanded uncertainty stated by the source.
Assays:
[1] = Crystal
[2] = Molar enthalpy of transition or fusion; details: Crystal; DSC

| Normal melting temperature ([1]; visual observation) | SMILES | Normal melting temperature ([1]; DTA) | Molar enthalpy of transition or fusion [2] |
| --- | --- | --- | --- |
|  | N#CCCC#N [butanedinitrile] | 56.50 ± 0.5 °C | 0.884 ± 0.0765 kcal/mol |
| 167.50 ± 0.5 °C | Brc1ccc(-c2ccc(Br)cc2)cc1 [4,4'-dibromo-1,1'-biphenyl] |  | 6.78 ± 0.203 kcal/mol |

— the NIST ThermoML archive (doi:10.1016/j.tca.2009.06.012)
